# Assay results reported in EP0038251A1, “Derivatives of osides, their preparation and their biological applications” (ANVAR Agence Nationale de Valorisation de la Recherche, priority 1980, dated 1981).
# System: hémolysines anti-B
# Test: Neutralisation of anti-B haemolysins: inhibition of one agglutinating dose of an anti-B test serum (European Pharmacopoeia techniques)
# Type: biochemical
# Settings: dilution 1/5 of a 10 mg/ml solution
# Procedure: On utilise une solution à 10 mg/ml du produit de formule XXVI.
structure (smiles),measurement,value
C[C@@H]1O[C@@H](O[C@H]2[C@H](OCCCOCCCN)O[C@H](CO)[C@H](O)[C@@H]2O[C@H]2O[C@H](CO)[C@H](O)[C@H](O)[C@H]2O)[C@@H](O)[C@H](O)[C@@H]1O [trisaccharide XXVI],inhibition d'une dose agglutinante d'un sérum-test anti-B,inhibition totale
